In patent publication US12637478B2, “Compound, preparation method thereof, and antibiotic composition comprising same” (priority 2020, dated 2026):
In brackets after ≈: the same amount, converted by molar mass. Where two headings read alike, the source gives them in different places.

What was measured:
[1] = system: S. aureus^MS; assay: MIC by broth microdilution (aerobic pathogens), test strain 1; assay type: cell-based; conditions: Staphylococcus aureus
Procedure: (§1) The antibacterial activity of the compounds of Examples 1 to 48 of the present invention against aerobic pathogens were evaluated by measuring the minimum concentration of the antibiotic capable of inhibiting bacterial growth by 90% compared to the growth of the non-drug treated control group. MIC was measured by the broth microdilution method based on CLSI standards [Reference: Clinical and Laboratory Standards Institute Document. (2000) Methods for Dilution Antimicrobial Susceptibility Test for Bacteria that Grow Aerobically-Fifth Edition: M7-A5. CLSI, Villanova, PA].
(§2) All 13 strains such as methicillin susceptible Staphylococcus aureus (MSSA), methicillin resistant Staphylococcus aureus (MRSA), Vancomycin resistant Staphylococcus aureus (VRSA), Staphylococcus epidermidis, methicillin resistant Staphylococcus epidermidis, Enterococcus faecalis, Vancomycin resistant Enterococcus faecalis, Enterococcus faecium, Vancomycin resistant Enterococcus faecium were used.

[2] = system: S. aureus^MS; assay: MIC by broth microdilution (aerobic pathogens), test strain 2; assay type: cell-based; conditions: Staphylococcus aureus
Procedure: as §1, §2

[3] = system: S. epidermis; assay: MIC by broth microdilution (aerobic pathogens), test strain 5; assay type: cell-based; conditions: Staphylococcus epidermidis
Procedure: as §1, §2

[4] = system: S. epidermis^MR; assay: MIC by broth microdilution (aerobic pathogens), test strain 6; assay type: cell-based, Methicillin resistant Staphylococcus epidermidis; conditions: Staphylococcus epidermidis; test strain 6, S. epidermis^MR (methicillin resistant); read-out: MIC
Procedure: as §1, §2

[5] = system: E. faecalis; assay: MIC by broth microdilution (aerobic pathogens), test strain 7; assay type: cell-based; conditions: Enterococcus faecalis; test strain 7, E. faecalis; read-out: MIC
Procedure: as §1, §2

[6] = system: E. faecalis^LinR; assay: MIC by broth microdilution (aerobic pathogens), test strain 9; assay type: cell-based, Linezolid resistant Enterococcus faecalis; conditions: Enterococcus faecalis
Procedure: as §1, §2

[7] = system: E. faecium; assay: MIC by broth microdilution (aerobic pathogens), test strain 10; assay type: cell-based; conditions: Enterococcus faecium; test strain 10, E. faecium; read-out: MIC
Procedure: as §1, §2

[8] = system: C. difficile 9689; assay: MIC by agar dilution against Clostridioides difficile, test strain 13; assay type: cell-based; conditions: test strain 13, C. difficile 9689, anaerobic, agar dilution, read-out: MIC
[9] = system: C. difficile 152; assay: MIC by agar dilution against Clostridioides difficile, test strain 14; assay type: cell-based; conditions: test strain 14, C. difficile 152, anaerobic, agar dilution, read-out: MIC
[10] = system: C. difficile 161; assay: MIC by agar dilution against Clostridioides difficile, test strain 16; assay type: cell-based; conditions: test strain 16, C. difficile 161, anaerobic, agar dilution, read-out: MIC
[11] = system: C. difficile 173; assay: MIC by agar dilution against Clostridioides difficile, test strain 17; assay type: cell-based; conditions: test strain 17, C. difficile 173, anaerobic, agar dilution, read-out: MIC
[12] = system: C. difficile 174; assay: MIC by agar dilution against Clostridioides difficile, test strain 18; assay type: cell-based; conditions: test strain 18, C. difficile 174, anaerobic, agar dilution, read-out: MIC
[13] = system: C. difficile 181; assay: MIC by agar dilution against Clostridioides difficile, test strain 19; assay type: cell-based; conditions: test strain 19, C. difficile 181, anaerobic, agar dilution, read-out: MIC
[14] = system: C. difficile 159; assay: MIC by agar dilution against Clostridioides difficile, test strain 15; assay type: cell-based
[15] = system: E. faecalis^VanA; assay: MIC by broth microdilution (aerobic pathogens), test strain 8; assay type: cell-based, Vancomycin resistant Enterococcus faecalis; conditions: Enterococcus faecalis; test strain 8, E. faecalis^VanA (vancomycin resistant); read-out: MIC
Procedure: as §1, §2

[16] = test strain 1, S. aureus^MS, read-out: MIC
[17] = test strain 2, S. aureus^MS, read-out: MIC
[18] = test strain 5, S. epidermis, read-out: MIC
[19] = test strain 9, E. faecalis^LinR (linezolid resistant), read-out: MIC

| MIC [1, 16] | MIC [2, 17] | MIC [3, 18] | MIC [4] | MIC [5] | MIC [6, 19] | SMILES | further results |
| --- | --- | --- | --- | --- | --- | --- | --- |
| 1 mg/L (≈ 0.798 µM) | 1 mg/L (≈ 0.798 µM) | 1 mg/L (≈ 0.798 µM) | 1 mg/L (≈ 0.798 µM) | 1 mg/L (≈ 0.798 µM) | 0.5 mg/L (≈ 0.399 µM) | C/C=C1\NC(=O)[C@H]([C@@H](C)O)NC(=O)c2csc(n2)-c2ccc(-c3nc(-c4nc(C(=O)NC5(C(=O)NCCCN6CCN(C7CC7)CC6)CC5)cs4)cs3)nc2-c2csc(n2)[C@H]([C@@H](C)O)NC(=O)c2csc(n2)[C@H](C(C)C)NC(=O)c2csc1n2 [Compound 15] | MIC [7]: 1 mg/L (≈ 0.798 µM) |
| 1 mg/L (≈ 0.834 µM) | 1 mg/L (≈ 0.834 µM) |  |  |  |  | C/C=C1\NC(=O)[C@H]([C@@H](C)O)NC(=O)c2csc(n2)-c2ccc(-c3nc(-c4nc(C(=O)NC5(C(=O)NCCCNC6COC6)CC5)cs4)cs3)nc2-c2csc(n2)[C@H]([C@@H](C)O)NC(=O)c2csc(n2)[C@H](C(C)C)NC(=O)c2csc1n2 [Compound 17] |  |
| 1 mg/L (≈ 0.807 µM) |  | 1 mg/L (≈ 0.807 µM) | 0.5 mg/L (≈ 0.404 µM) |  | 0.5 mg/L (≈ 0.404 µM) | C/C=C1\NC(=O)[C@H]([C@@H](C)O)NC(=O)c2csc(n2)-c2ccc(-c3nc(-c4nc(C(=O)NC5(C(=O)NCCN6CCN(C7CC7)CC6)CC5)cs4)cs3)nc2-c2csc(n2)[C@H]([C@@H](C)O)NC(=O)c2csc(n2)[C@H](C(C)C)NC(=O)c2csc1n2 [Compound 33] |  |
| 0.5 mg/L (≈ 0.399 µM) | 1 mg/L (≈ 0.797 µM) | 0.25 mg/L (≈ 0.199 µM) | 0.5 mg/L (≈ 0.399 µM) | 1 mg/L (≈ 0.797 µM) |  | C/C=C(\NC(=O)c1csc(-c2csc(-c3ccc4c(n3)-c3csc(n3)[C@H]([C@@H](C)O)NC(=O)c3csc(n3)[C@H](C(C)C)NC(=O)c3csc(n3)/C(=C/C)NC(=O)[C@H]([C@@H](C)O)NC(=O)c3csc-4n3)n2)n1)C(=O)NCCCN1CCN(C(C)C)CC1 [Compound 34] | MIC [15]: 1 mg/L (≈ 0.797 µM) |

Second part, the compound before the results:

| SMILES | MIC [1, 16] | MIC [2, 17] | MIC [3, 18] | MIC [4] | MIC [5] | MIC [6, 19] | further results |
| --- | --- | --- | --- | --- | --- | --- | --- |
| C/C=C1\NC(=O)[C@H]([C@@H](C)O)NC(=O)c2csc(n2)-c2ccc(-c3nc(-c4nc(C(=O)NC5(C(=O)NCCCn6cc([N+](=O)[O-])cn6)CC5)cs4)cs3)nc2-c2csc(n2)[C@H]([C@@H](C)O)NC(=O)c2csc(n2)[C@H](C(C)C)NC(=O)c2csc1n2 [Compound 13] |  |  |  |  |  |  | MIC [8]: 0.5 mg/L (≈ 0.403 µM); MIC [9]: 1 mg/L (≈ 0.807 µM); MIC [10]: 0.5 mg/L (≈ 0.403 µM); MIC [11]: 0.5 mg/L (≈ 0.403 µM); MIC [12]: 0.125 mg/L (≈ 0.101 µM); MIC [13]: 0.5 mg/L (≈ 0.403 µM) |
| C/C=C(\NC(=O)c1csc(-c2csc(-c3ccc4c(n3)-c3csc(n3)[C@H]([C@@H](C)O)NC(=O)c3csc(n3)[C@H](C(C)C)NC(=O)c3csc(n3)/C(=C/C)NC(=O)[C@H]([C@@H](C)O)NC(=O)c3csc-4n3)n2)n1)C(=O)NCCn1ccnc1[N+](=O)[O-] [Compound 43] |  |  |  |  |  |  | MIC [8]: 0.5 mg/L (≈ 0.408 µM); MIC [9]: 0.5 mg/L (≈ 0.408 µM); MIC ([14]; test strain 15, C. difficile 159, anaerobic, agar dilution, read-out: MIC): 0.5 mg/L (≈ 0.408 µM); MIC [10]: 0.5 mg/L (≈ 0.408 µM); MIC [11]: 1 mg/L (≈ 0.816 µM); MIC [12]: 0.5 mg/L (≈ 0.408 µM); MIC [13]: 0.5 mg/L (≈ 0.408 µM) |
| C/C=C1\NC(=O)[C@H]([C@@H](C)O)NC(=O)c2csc(n2)-c2ccc(-c3nc(-c4nc(C(=O)NC5(C(=O)NCCN6CCOCC6)CC5)cs4)cs3)nc2-c2csc(n2)[C@H]([C@@H](C)O)NC(=O)c2csc(n2)[C@H](C(C)C)NC(=O)c2csc1n2 [Compound 2] | 1 mg/L (≈ 0.834 µM) | 1 mg/L (≈ 0.834 µM) |  | 0.5 mg/L (≈ 0.417 µM) | 0.5 mg/L (≈ 0.417 µM) | 1 mg/L (≈ 0.834 µM) | MIC [3]: 0.25 mg/L (≈ 0.208 µM); MIC [15]: 0.5 mg/L (≈ 0.417 µM) |
| C/C=C1\NC(=O)[C@H]([C@@H](C)O)NC(=O)c2csc(n2)-c2ccc(-c3nc(-c4nc(C(=O)NC5(C(=O)NCCCN6C(=O)CN(CCC(=O)O)C6=O)CC5)cs4)cs3)nc2-c2csc(n2)[C@H]([C@@H](C)O)NC(=O)c2csc(n2)[C@H](C(C)C)NC(=O)c2csc1n2 [Compound 19] |  |  |  |  |  |  | MIC [1]: 0.5 mg/L (≈ 0.385 µM) |
| C/C=C1\NC(=O)[C@H]([C@@H](C)O)NC(=O)c2csc(n2)-c2ccc(-c3nc(-c4nc(C(=O)NC5(C(=O)NCCCN6C(=O)CN(CCC(=O)OC)C6=O)CC5)cs4)cs3)nc2-c2csc(n2)[C@H]([C@@H](C)O)NC(=O)c2csc(n2)[C@H](C(C)C)NC(=O)c2csc1n2 [Compound 16] |  |  |  |  |  |  | MIC [1]: 1 mg/L (≈ 0.762 µM); MIC [2]: 0.5 mg/L (≈ 0.381 µM); MIC [6]: 0.25 mg/L (≈ 0.19 µM); MIC [14]; 159: 0.5 mg/L (≈ 0.381 µM) |
